Measurements as given in ChEMBL document CHEMBL2034905, “Synthesis of benzimidazolyl-1,3,4-oxadiazol-2ylthio-N-phenyl (benzothiazolyl) acetamides as antibacterial, antifungal and antituberculosis agents” (Eur J Med Chem, 2012).
Converted amounts (≈) assume the structure as drawn.

Assays:
[1] = system: Mycobacterium tuberculosis; assay: Antituberculosis activity against Mycobacterium tuberculosis H37Rv by Lowenstein-Jensen method; type: functional
[2] = system: Candida albicans; assay: Antifungal activity against Candida albicans MTCC 183 at 100 ug/disc by paper disc diffusion technique; type: functional; conditions: read-out: IZ
[3] = system: Staphylococcus aureus; assay: Antibacterial activity against Staphylococcus aureus MTCC 96 by agar streak dilution method; type: functional
[4] = system: Shigella flexneri; assay: Antibacterial activity against Shigella flexneri MTCC 1457 by agar streak dilution method; type: functional
[5] = system: Shigella flexneri; assay: Antibacterial activity against Shigella flexneri MTCC 1457 at 100 ug/disc by paper disc diffusion technique; type: functional; conditions: read-out: IZ
[6] = system: Candida albicans; assay: Antifungal activity against Candida albicans MTCC 183 by agar streak dilution method; type: functional
[7] = system: Mycobacterium tuberculosis; assay: Antituberculosis activity against Mycobacterium tuberculosis H37Rv by BACTEC MGIT method; type: functional
[8] = system: Proteus vulgaris; assay: Antibacterial activity against Proteus vulgaris MTCC 1771 at 100 ug/disc by paper disc diffusion technique; type: functional; conditions: read-out: IZ
[9] = system: Escherichia coli; assay: Antibacterial activity against Escherichia coli MTCC 739 at 100 ug/disc by paper disc diffusion technique; type: functional; conditions: read-out: IZ
[10] = system: Aspergillus niger; assay: Antifungal activity against Aspergillus niger MTCC 282 at 100 ug/disc by paper disc diffusion technique; type: functional; conditions: read-out: IZ
[11] = system: Pseudomonas aeruginosa; assay: Antibacterial activity against Pseudomonas aeruginosa MTCC 741 by agar streak dilution method; type: functional
[12] = Lipophilicity, log P of the compound; type: physicochemical; conditions: octanol/water
[13] = system: Bacillus cereus; assay: Antibacterial activity against Bacillus cereus MTCC 430 by agar streak dilution method; type: functional
[14] = system: Escherichia coli; assay: Antibacterial activity against Escherichia coli MTCC 739 by agar streak dilution method; type: functional
[15] = system: Bacillus cereus; assay: Antibacterial activity against Bacillus cereus MTCC 430 at 100 ug/disc by paper disc diffusion technique; type: functional; conditions: read-out: IZ
[16] = system: Pseudomonas aeruginosa; assay: Antibacterial activity against Pseudomonas aeruginosa MTCC 741 at 100 ug/disc by paper disc diffusion technique; type: functional; conditions: read-out: IZ
[17] = system: Aspergillus clavatus; assay: Antifungal activity against Aspergillus clavatus MTCC 1323 at 100 ug/disc by paper disc diffusion technique; type: functional; conditions: read-out: IZ
[18] = system: Aspergillus fumigatus; assay: Antifungal activity against Aspergillus fumigatus MTCC 343 at 100 ug/disc by paper disc diffusion technique; type: functional; conditions: read-out: IZ
[19] = system: Mycobacterium tuberculosis; assay: Antituberculosis activity against Mycobacterium tuberculosis H37Rv at 6.25 ug/ml by Lowenstein-Jensen method; type: functional
[20] = system: Salmonella typhi; assay: Antibacterial activity against Salmonella typhi MTCC 733 at 100 ug/disc by paper disc diffusion technique; type: functional, Salmonella enterica subsp. enterica serovar Typhi; conditions: Salmonella enterica, read-out: IZ
[21] = system: Aspergillus fumigatus; assay: Antifungal activity against Aspergillus fumigatus MTCC 343 by agar streak dilution method; type: functional
[22] = system: Aspergillus clavatus; assay: Antifungal activity against Aspergillus clavatus MTCC 1323 by agar streak dilution method; type: functional
[23] = system: Salmonella typhi; assay: Antibacterial activity against Salmonella typhi MTCC 733 by agar streak dilution method; type: functional, Salmonella enterica subsp. enterica serovar Typhi; conditions: Salmonella enterica
[24] = system: Klebsiella pneumoniae; assay: Antibacterial activity against Klebsiella pneumoniae MTCC 109 by agar streak dilution method; type: functional
[25] = system: Klebsiella pneumoniae; assay: Antibacterial activity against Klebsiella pneumoniae MTCC 109 at 100 ug/disc by paper disc diffusion technique; type: functional; conditions: read-out: IZ
[26] = system: Proteus vulgaris; assay: Antibacterial activity against Proteus vulgaris MTCC 1771 by agar streak dilution method; type: functional
[27] = system: Staphylococcus aureus; assay: Antibacterial activity against Staphylococcus aureus MTCC 96 at 100 ug/disc by paper disc diffusion technique; type: functional; conditions: read-out: IZ
[28] = system: Aspergillus niger; assay: Antifungal activity against Aspergillus niger MTCC 282 by agar streak dilution method; type: functional

O=C(CSc1nnc(Cn2cnc3ccccc32)o1)Nc1nc2ccc(Br)cc2s1
MIC [1]: 25 µg/mL (≈ 49.9 µM) | zone of inhibition at 100 µg/disc [2]: 17 mm | MIC [3]: 3.12 µg/mL (≈ 6.22 µM) | MIC [4]: 12.5 µg/mL (≈ 24.9 µM) | zone of inhibition at 100 µg/disc [5]: 23 mm | MIC [6]: 100 µg/mL (≈ 199 µM) | MIC [7]: > 6.25 µg/mL | zone of inhibition at 100 µg/disc [8]: 20 mm | zone of inhibition at 100 µg/disc [9]: 19 mm | zone of inhibition at 100 µg/disc [10]: 19 mm | MIC [11]: 25 µg/mL (≈ 49.9 µM) | logP [12]: 4.52 | MIC [13]: 25 µg/mL (≈ 49.9 µM) | MIC [14]: 50 µg/mL (≈ 99.7 µM) | zone of inhibition at 100 µg/disc [15]: 24 mm | zone of inhibition at 100 µg/disc [16]: 23 mm | zone of inhibition at 100 µg/disc [17]: 20 mm | zone of inhibition at 100 µg/disc [18]: 21 mm | inhibition at 6.25 µg/mL [19]: 99% | zone of inhibition at 100 µg/disc [20]: 24 mm | MIC [21]: 50 µg/mL (≈ 99.7 µM) | MIC [22]: 50 µg/mL (≈ 99.7 µM) | MIC [23]: 25 µg/mL (≈ 49.9 µM) | MIC [24]: 100 µg/mL (≈ 199 µM) | zone of inhibition at 100 µg/disc [25]: 14 mm | MIC [26]: 50 µg/mL (≈ 99.7 µM) | zone of inhibition at 100 µg/disc [27]: 26 mm | MIC [28]: 50 µg/mL (≈ 99.7 µM)

O=C(CSc1nnc(Cn2cnc3ccccc32)o1)Nc1nc2ccc(F)cc2s1
MIC [1]: 12.5 µg/mL (≈ 28.4 µM) | zone of inhibition at 100 µg/disc [2]: 23 mm | MIC [3]: 3.12 µg/mL (≈ 7.08 µM) | MIC [4]: 6.25 µg/mL (≈ 14.2 µM) | zone of inhibition at 100 µg/disc [5]: 24 mm | MIC [6]: 50 µg/mL (≈ 114 µM) | MIC [7]: > 6.25 µg/mL | zone of inhibition at 100 µg/disc [8]: 22 mm | zone of inhibition at 100 µg/disc [9]: 17 mm | zone of inhibition at 100 µg/disc [10]: 21 mm | MIC [11]: 50 µg/mL (≈ 114 µM) | logP [12]: 3.85 | MIC [13]: 6.25 µg/mL (≈ 14.2 µM) | MIC [14]: 50 µg/mL (≈ 114 µM) | zone of inhibition at 100 µg/disc [15]: 29 mm | zone of inhibition at 100 µg/disc [16]: 20 mm | zone of inhibition at 100 µg/disc [17]: 21 mm | zone of inhibition at 100 µg/disc [18]: 23 mm | inhibition at 6.25 µg/mL [19]: 99% | zone of inhibition at 100 µg/disc [20]: 24 mm | MIC [21]: 25 µg/mL (≈ 56.8 µM) | MIC [22]: 50 µg/mL (≈ 114 µM) | MIC [23]: 25 µg/mL (≈ 56.8 µM) | MIC [24]: 50 µg/mL (≈ 114 µM) | zone of inhibition at 100 µg/disc [25]: 19 mm | MIC [26]: 25 µg/mL (≈ 56.8 µM) | zone of inhibition at 100 µg/disc [27]: 25 mm | MIC [28]: 25 µg/mL (≈ 56.8 µM)

O=C(CSc1nnc(Cn2cnc3ccccc32)o1)Nc1nc2ccc(I)cc2s1
MIC [1]: 200 µg/mL (≈ 365 µM) | zone of inhibition at 100 µg/disc [2]: 19 mm | MIC [3]: 12.5 µg/mL (≈ 22.8 µM) | MIC [4]: 25 µg/mL (≈ 45.6 µM) | zone of inhibition at 100 µg/disc [5]: 22 mm | MIC [6]: 100 µg/mL (≈ 182 µM) | MIC [7]: > 6.25 µg/mL | zone of inhibition at 100 µg/disc [8]: 26 mm | zone of inhibition at 100 µg/disc [9]: 15 mm | zone of inhibition at 100 µg/disc [10]: 14 mm | MIC [11]: 100 µg/mL (≈ 182 µM) | logP [12]: 5.05 | MIC [13]: 25 µg/mL (≈ 45.6 µM) | MIC [14]: 50 µg/mL (≈ 91.2 µM) | zone of inhibition at 100 µg/disc [15]: 23 mm | zone of inhibition at 100 µg/disc [16]: 14 mm | zone of inhibition at 100 µg/disc [17]: 14 mm | zone of inhibition at 100 µg/disc [18]: < 10 mm | inhibition at 6.25 µg/mL [19]: 96% | zone of inhibition at 100 µg/disc [20]: 16 mm | MIC [21]: 100 µg/mL (≈ 182 µM) | MIC [22]: 100 µg/mL (≈ 182 µM) | MIC [23]: 100 µg/mL (≈ 182 µM) | MIC [24]: 100 µg/mL (≈ 182 µM) | zone of inhibition at 100 µg/disc [25]: 14 mm | MIC [26]: 12.5 µg/mL (≈ 22.8 µM) | zone of inhibition at 100 µg/disc [27]: 22 mm | MIC [28]: 100 µg/mL (≈ 182 µM)

O=C(CSc1nnc(Cn2cnc3ccccc32)o1)Nc1nc2ccc([N+](=O)[O-])cc2s1
MIC [1]: 50 µg/mL (≈ 107 µM) | zone of inhibition at 100 µg/disc [2]: 15 mm | MIC [3]: 12.5 µg/mL (≈ 26.7 µM) | MIC [4]: 50 µg/mL (≈ 107 µM) | zone of inhibition at 100 µg/disc [5]: 20 mm | MIC [6]: 100 µg/mL (≈ 214 µM) | MIC [7]: > 6.25 µg/mL | zone of inhibition at 100 µg/disc [8]: 15 mm | zone of inhibition at 100 µg/disc [9]: 18 mm | zone of inhibition at 100 µg/disc [10]: 23 mm | MIC [11]: 100 µg/mL (≈ 214 µM) | MIC [13]: 12.5 µg/mL (≈ 26.7 µM) | MIC [14]: 50 µg/mL (≈ 107 µM) | zone of inhibition at 100 µg/disc [15]: 25 mm | zone of inhibition at 100 µg/disc [16]: 16 mm | zone of inhibition at 100 µg/disc [17]: 27 mm | zone of inhibition at 100 µg/disc [18]: 22 mm | inhibition at 6.25 µg/mL [19]: 98% | zone of inhibition at 100 µg/disc [20]: 19 mm | MIC [21]: 50 µg/mL (≈ 107 µM) | MIC [22]: 25 µg/mL (≈ 53.5 µM) | MIC [23]: 50 µg/mL (≈ 107 µM) | MIC [24]: 100 µg/mL (≈ 214 µM) | zone of inhibition at 100 µg/disc [25]: 16 mm | MIC [26]: 100 µg/mL (≈ 214 µM) | zone of inhibition at 100 µg/disc [27]: 21 mm | MIC [28]: 12.5 µg/mL (≈ 26.7 µM)

N#Cc1ccc2nc(NC(=O)CSc3nnc(Cn4cnc5ccccc54)o3)sc2c1
MIC [1]: 100 µg/mL (≈ 223 µM) | zone of inhibition at 100 µg/disc [2]: 13 mm | MIC [3]: 6.25 µg/mL (≈ 14 µM) | MIC [4]: 50 µg/mL (≈ 112 µM) | zone of inhibition at 100 µg/disc [5]: 21 mm | MIC [6]: 100 µg/mL (≈ 223 µM) | MIC [7]: > 6.25 µg/mL | zone of inhibition at 100 µg/disc [8]: 19 mm | zone of inhibition at 100 µg/disc [9]: 24 mm | zone of inhibition at 100 µg/disc [10]: 18 mm | MIC [11]: 50 µg/mL (≈ 112 µM) | logP [12]: 3.72 | MIC [13]: 50 µg/mL (≈ 112 µM) | MIC [14]: 25 µg/mL (≈ 55.9 µM) | zone of inhibition at 100 µg/disc [15]: 22 mm | zone of inhibition at 100 µg/disc [16]: 15 mm | zone of inhibition at 100 µg/disc [17]: 18 mm | zone of inhibition at 100 µg/disc [18]: 22 mm | inhibition at 6.25 µg/mL [19]: 95% | zone of inhibition at 100 µg/disc [20]: 17 mm | MIC [21]: 50 µg/mL (≈ 112 µM) | MIC [22]: 100 µg/mL (≈ 223 µM) | MIC [23]: 100 µg/mL (≈ 223 µM) | MIC [24]: 25 µg/mL (≈ 55.9 µM) | zone of inhibition at 100 µg/disc [25]: 25 mm | MIC [26]: 50 µg/mL (≈ 112 µM) | zone of inhibition at 100 µg/disc [27]: 24 mm | MIC [28]: 50 µg/mL (≈ 112 µM)
